Our source for the LD50 and IC50 values is patent publication US20100286424A1 (priority 2007, published 2010).

The subject of one data set is mouse. Particulars: in vivo, po; cited from earlier work.
For a further data set, the system named is cell growth. The format is cell-based.

With `C[As+](C)(C)CC(=O)[O-]` [AB, arsenobetaine], the LD50 in the data set on mouse is 10,000 mg/kg.
Compound Arsenic acid displayed an IC50 in the data set with cell growth of 100 µM.
Consider Arsenious acid, for which inhibition with cell growth was half-maximal at 10 µM (IC50).
